Here are results for 37 compounds from patent US4588720A, “Imidazo[1,2-a]pyrimidines” (Roussel Uclaf, priority 1982, dated 1986).

Assay [1] in a line: Anxiolytic activity, Geller conflict method (Geller and Seifter). It is filed as in vivo. To be noted: po; modified Geller and Seifter conflict method; read-out: Geller Conflict (MED mg/kg po), minimum effective dose at which there was an observed increase in shocks above control. Here is the method: Screening for anxiolytic activity was carried out by modifications of the conflict method of Geller and Seifter (Psychopharmacologia, (1960), Volume I, p. 482). The values given in Table VI are the minimum effective doses at which there was an observed increase in shocks above control (MED me/kg po).

For assay [2], the target named is benzodiazepine receptors. In words: Affinity for benzodiazepine receptors ([3H] flunitrazepam radioreceptor binding). The following applies: inhibition of specific binding of 0.6 nM [^3 H] flunitrazepam, rat forebrain membrane preparations; read-out: Receptor Binding (IC50 nM). Here is the method: A. Affinity for benzodiazepine receptors
The affinity of the compounds for benzodiazepine receptors was assessed using the radioligand [^3 H] flunitrazepam and modifications of the original radioreceptor binding method of Squares and Braestrup (Nature, Vol. 266 (1977) p. 732). The values given in Table VI are nanomolar concentrations of test compound which inhibited the specific binding of 0.6 nM[^3 H] flunitrazepam to rat forebrain membrain preparations by 50% (IC50 nM).

In the case of `CCc1c(OC)nc2nc(C(=O)c3ccccn3)cn2c1C` [Example 61, (6-ethyl 7-methoxy 5-methylimidazo/1,2-a/pyrimidin-2-yl)(2-pyridinyl)methanone], in assay [1], the minimal effective dose turned out to be 50 mg/kg.
In the case of `CCc1c(SC)nc2nc(C(=O)c3ccccc3)cn2c1CC` [Example 52, [5,6-Diethyl-7-(methylthio)imidazo[1,2-a]pyrimidin-2-yl]phenylmethanone], the IC50 in assay [2] came to 12 nM.
For the compound `CCCc1cn2cc(C(=O)c3ccccc3)nc2nc1OC` [Example 40, [7-Methoxy-6-n-propylimidazo[1,2-a]pyrimidin-2-yl]phenylmethanone], the minimal effective dose in assay [1] is 50 mg/kg. Further, in assay [2], the IC50 was 1900 nM.
The corresponding values for `CCOc1nc2nc(C(=O)c3ccccc3)cn2c2c1CCCCC2` [Example 10] are 5 mg/kg and 4000 nM.
As for `COc1cc(C)n2cc(C(=O)c3ccccc3)nc2n1` [Example 3, (7-Methoxy-5-methylimidazol[1,2-a]pyrimidin-2-yl)-phenyl methanone], the minimal effective dose in assay [1] was 5 mg/kg. Further, the IC50 in assay [2] amounted to 800 nM.
With `CCc1c(OC)nc2nc(C(C)=O)cn2c1C` [Example 64, 1-(6-ethyl 7-methoxy 5-methylimidazo/1,2-a/pyrimidin-2-yl)ethanone], the minimal effective dose in assay [1] worked out at 50 mg/kg.
Turning to `CCCc1cc(OC)nc2nc(C(=O)c3ccccc3)cn12` [Example 14, (7-Methoxy-5-propylimidazo[1,2-a]pyrimidin-2-yl)phenylmethanone], the minimal effective dose in assay [1] stood at 1 mg/kg. Further, in assay [2], the IC50 was 535 nM.
Consider `COc1nc2nc(C(=O)c3ccccc3)cn2c(C)c1CC(C)C` [Example 48, [6-iso-Butyl-7-methoxy-5-methylimidazo[1,2-a]pyrimidin-2-yl]phenylmethanone], for which, in assay [1], the minimal effective dose is 20 mg/kg. In addition, the IC50 in assay [2] was 400 nM.
Turning to `CCc1c(OC)nc2nc(C(=O)c3ccc(C)cc3)cn2c1C` [Example 56, (6-ethyl 7-methoxy 5-methylimidazo/1,2-a/pyrimidin-2-yl)(4-methylphenyl)methanone], the minimal effective dose in assay [1] was 50 mg/kg. For the same compound, in assay [2], the half-inhibitory concentration (IC50) amounted to 68 nM.
Turning to `CCCc1cc(SC)nc2nc(C(=O)c3ccccc3)cn12` [Example 22, [7-(Methylthio)-5-propylimidazo[1,2-a]pyrimidin-2-yl]phenylmethanone], the minimal effective dose in assay [1] was 50 mg/kg. Also, in assay [2], the IC50 was 89 nM.
With `CSc1nc2nc(C(=O)c3ccccc3)cn2c2c1CCC2` [Example 6, [5-(Methylthio)cyclopenta[e]imidazo[1,2-a]pyrimidin-2-yl]phenylmethanone], the minimal effective dose in assay [1] was 2 mg/kg. In addition, the IC50 in assay [2] came to 35 nM.
Regarding `COc1nc2nc(C(=O)c3ccccc3)cn2c2c1CCCCC2` [Example 8], the minimal effective dose in assay [1] was found to be 10 mg/kg. Besides, in assay [2], the IC50 was determined as 125 nM.
For the compound `C=CCc1c(OC)nc2nc(C(=O)c3ccccc3)cn2c1CCC` [Example 37, [6-Allyl-7-methoxy-5-n-propylimidazo[1,2-a]pyrimidin-2-yl]phenylmethanone], the minimal effective dose in assay [1] came out at 50 mg/kg. In assay [2], the IC50 is 135 nM.
Turning to `C=CCc1c(OC)nc2nc(C(=O)c3ccccc3)cn2c1CC` [Example 44, [6-Allyl-5-ethyl-7-methoxyimidazo[1,2-a]pyrimidin-2-yl]phenylmethanone], in assay [1], the minimal effective dose was 10 mg/kg. In addition, in assay [2], the IC50 amounted to 42 nM.
Regarding `CCc1cn2cc(C(=O)c3ccccc3)nc2nc1OC` [Example 38, [6-Ethyl-7-methoxyimidazo[1,2-a]pyrimidin-2-yl]phenylmethanone], in assay [1], the minimal effective dose was 5 mg/kg. The IC50 in assay [2] was determined as 1500 nM.
As to `CCc1c(OC)nc2nc(C(=O)c3ccc(SC)cc3)cn2c1C` [Example 59, (6-ethyl 7-methoxy 5-methylimidazo/1,2-a/pyrimidin-2-yl)(4-methylthiophenyl)methanone], the minimal effective dose in assay [1] is 50 mg/kg. Further, the IC50 in assay [2] is 300 nM.
As for `CCCCc1c(CCC)c(OC)nc2nc(C(=O)c3ccccc3)cn12` [Example 46, [5-n-Butyl-7-methoxy-6-n-propylimidazo[1,2-a]pyrimidin-2-yl]phenylmethanone], the minimal effective dose in assay [1] was 20 mg/kg. Further, the IC50 in assay [2] was 1200 nM.
The corresponding values for `C=CCc1c(OC)nc2nc(C(=O)c3ccccc3)cn2c1C` [Example 20, (6-Allyl-7-methoxy-5-methylimidazo[1,2-a]pyrimidin-2-yl)phenylmethanone] are 4 mg/kg and 45 nM.
As for `CCCCCc1c(OC)nc2nc(C(=O)c3ccccc3)cn2c1C` [Example 47, [7-Methoxy-5-methyl-6-n-pentylimidazo[1,2-a]pyrimidin-2-yl]phenylmethanone], the minimal effective dose in assay [1] was found to be 20 mg/kg. Moreover, the IC50 in assay [2] is 107 nM.
Consider `CSc1nc2nc(C(=O)c3ccccc3)cn2c2c1CCC(C)C2` (stereo not shown) [Example 18, [8-Methyl-5-(methylthio)-6,7,8,9-tetrahydroimidazo[1,2-a]quinzolin-2-yl]phenylmethanone], for which the minimal effective dose in assay [1] came to 50 mg/kg. In assay [2], the half-maximal inhibitory concentration (IC50) worked out at 76 nM.
Regarding `CCOc1nc2nc(C(=O)c3ccccc3)cn2c(C)c1CC` [Example 25, [7-Ethoxy-6-ethyl-5-methylimidazo[1,2-a]pyrimidin-2-yl]phenylmethanone], the minimal effective dose in assay [1] stood at 50 mg/kg. Further, in assay [2], the IC50 was found to be 1900 nM.
For `CCc1c(OC)nc2nc(C(=O)c3cccc(OC)c3)cn2c1C` [Example 58, (6-ethyl 7-methoxy 5-methylimidazo/1,2-a/pyrimidin-2-yl)(3-methoxyphenyl)methanone], in that order: 50 mg/kg and 500 nM.
For `CCCc1c(OC)nc2nc(C(=O)c3ccccc3)cn2c1CC` [Example 35, [5-Ethyl-7-methoxy-6-n-propylimidazo[1,2-a]pyrimidin-2-yl]phenylmethanone], in that order: 10 mg/kg and 34 nM.
On to `CCCc1c(SC)nc2nc(C(=O)c3ccccc3)cn2c1CC` [Example 53, [5-Ethyl-7-(methylthio)-6-n-propylimidazo[1,2-a]pyrimidin-2-yl]phenylmethanone], for which the IC50 in assay [2] stood at 47 nM.
For `CCc1c(OC)nc2nc(C(=O)c3ccccc3)cn2c1C` [Example 16, (6-Ethyl-7-methoxy-5-methylimidazo[1,2-a]pyrimidin-2-yl)phenylmethanone], the minimal effective dose in assay [1] is 2 mg/kg. Moreover, the IC50 in assay [2] was determined as 56 nM.
The corresponding values for `CCc1c(OC)nc2nc(C(=O)c3ccc(Cl)cc3)cn2c1C` [Example 55, (6-ethyl 7-methoxy 5-methylimidazo/1,2-a/pyrimidin-2-yl)(4-chlorophenyl)methanone] are 50 mg/kg and 85 nM.
For `CCSc1nc2nc(C(=O)c3ccccc3)cn2c2c1CCC2` [Example 13, [5-(Ethylthio)cyclopenta[e]imidazo[1,2-a]pyrimidin-2-yl]phenylmethanone], in that order: 50 mg/kg and 1850 nM.
For the compound `CCCCc1c(OC)nc2nc(C(=O)c3ccccc3)cn2c1CCC` [Example 34, [6-n-Butyl-7-methoxy-5-n-propylimidazo[1,2-a]pyrimidin-2-yl]phenylmethanone], the minimal effective dose in assay [1] came to 50 mg/kg. The IC50 in assay [2] was 710 nM.
For `COc1nc2nc(C(=O)c3ccccc3)cn2c(C)c1C(C)C` [Example 11, (7-Methoxy-5-methyl-6-(1-methylethyl)imidazo[1,2-a]pyrimidin-2-yl)phenylmethanone], in assay [1], the minimal effective dose is 2 mg/kg. Also, in assay [2], the IC50 turned out to be 37 nM.
Take `CCc1c(OC)nc2nc(C(=O)c3ccc(OC)cc3)cn2c1C` [Example 54, (6-Ethyl-7-methoxy-5-methylimidazo[1,2-a]pyrimidin-2-yl)(4-methoxyphenyl)methanone]: the minimal effective dose in assay [1] was 10 mg/kg. Moreover, the IC50 in assay [2] stood at 59 nM.
For `CCCCCCc1c(OC)nc2nc(C(=O)c3ccccc3)cn2c1C` [Example 19, (6-n-Hexyl-7-methoxy-5-methylimidazo[1,2-a]pyrimidin-2-yl)phenylmethanone], the minimal effective dose in assay [1] turned out to be 20 mg/kg. For the same compound, the IC50 in assay [2] is 180 nM.
As to `CCCc1c(OC)nc2nc(C(=O)c3ccccc3)cn2c1CCC` [Example 33, [7-Methoxy-5,6-di-n-propylimidazo[1,2-a]pyrimidin-2-yl]phenylmethanone], the minimal effective dose in assay [1] stood at 50 mg/kg. Besides, the IC50 in assay [2] was determined as 1250 nM.
`CCCc1c(OC)nc2nc(C(=O)c3ccccc3)cn2c1C` [Example 32, [7-Methoxy-5-methyl-6-n-propylimidazo[1,2-a]pyrimidin-2-yl]phenylmethanone]: the minimal effective dose in assay [1] was found to be 5 mg/kg. For the same compound, the IC50 in assay [2] was found to be 85 nM.
For `COc1nc2nc(C(=O)c3ccccc3)cn2c2c1CCCC2` [Example 1, (5-methoxy-6,7,8.9-tetrahydroimidazo[1,2-a]quinazolin-2-yl)phenylmethanone], in that order: 5 mg/kg and 61 nM.
On to `CCc1c(OC)nc2nc(C(=O)c3ccc(F)cc3)cn2c1C` [Example 62, (6-ethyl 7-methoxy 5-methylimidazo/1,2-a/pyrimidin-2-yl)(4-fluorophenyl)methanone], for which, in assay [1], the minimal effective dose came to 10 mg/kg.
For the compound `CCc1c(OC)nc2nc(C(=O)c3cccs3)cn2c1C` [Example 60, 6-ethyl 7-methoxy 5-methylimidazo/1,2-a/pyrimidin-2-yl(2-thienyl)methanone], in assay [1], the minimal effective dose is 50 mg/kg.
For `CCc1c(OC)nc2nc(C(=O)c3cccc(C(F)(F)F)c3)cn2c1C` [Example 63, (6-ethyl 7-methoxy 5-methylimidazo/1,2-a/pyrimidin-2-yl)/(3-trifluoromethyl)phenyl/methanone], in assay [1], the minimal effective dose was found to be 50 mg/kg.

As usually defined, the IC50 is the concentration needed to halve the response being measured.
